Reference: patent publication US6127337A, “Bivalent thrombin inhibitors” (National Research Council of Canada, priority 1993, dated 2000)
“And” between values parts separate entries of the source, which are not always exact repeats. Identical values can stand only once. Like-named read-outs stand apart in the source and are kept apart here.

Legend:
human thrombin [1] = biological target: T1, human thrombin (Homo sapiens, UniProt P00734); experiment: Fibrin clotting assay; type: biochemical
T1 construct: Human α-thrombin (3,000 NIH units/mg); purchased Sigma
Excerpt: Abbreviations. The following abbreviations have been used in the specification: Abu, γ-aminobutyric acid; Ac, acetyl; Aca, ε-aminocaproic acid; Aca*, 8-aminocapylic acid; Acha, 1-aminocyclohexane-carboxylic acid; Ada, 12-aminododecanoic acid; AMC, 7-amino-4-methylcoumarin; Aua, 11-aminoundecanoic acid; Ava, δ-aminovaleric acid; Bal, β-alanine; Boc, tert-butyloxycarbonyl; BrBzs, 4-bromobenzenesulfonyl; Bzs, benzene sulfonyl; Cha, β-cyclohexylalanine; Fmoc, 9-fluorenylmethoxycarbonyl;FRE, fibrinogen recognition exo site; HPLC, high performance liquid chromatography; MD805, (2R,4R)-4-methyl-1-[N^α -(3-methyl-1,2,3,4-tetrahydro-8-quinolinesulphonyl-glycyl)-L-arginyl]-2-piperidine carboxylic acid; NAPAP, N^α (2-naphtyl-sulphonyl)-D,L-p-amidinophenylalanyl-piperidide; Nas, naphtylsulfonyl; Nle, norleucine; 3-TAPAP, N^α -(4-toluene-sulphonyl)-D,L-p-amidinophenylalanyl-piperidide; OBzl, benzylester; Pip, pipecolic acid; PPACK, D-Phe-Pro-Arg chloromethylketone; tBbs, 4-tert-butylbenzenesulfonyl; Tic, 1,2,3,4-tetrahydroisoquinoline-3-carboxylic acid; TipBs, 2,4,6 triisopropylbenzenesulfonyl; TFA, trifluoroacetic acid; Tos, tosyl; Tris, 2-amino-2-(hydroxymethyl)-1,3-propanediol. All amino acid residues are L-configuration unless otherwise indicated. IC50 is defined as the inhibitor concentration required to double the clotting time relative to the control; means of three determinants ±SEM.
The fibrin clotting assay was performed in 50 mM Tris HCl buffer (pH 7.52 at 37° C.) containing 0.1 M NaCl and 0.1% poly(ethylene glycol) 8000 with 9.0×10^-10 M (0.1 NIH unit/mL) and 0.03% (w/v) of the final concentrations of human thrombin and bovine fibrinogen, respectively, as reported elsewhere (Szewczuk et al., 1992). The clotting time was plotted against the inhibitor concentrations and the IC50 was estimated as the inhibitor concentration required to double the clotting time relative to the control.

human thrombin [2] = biological target: T1, human thrombin; experiment: Inhibition of amidolytic activity of human thrombin (fluorogenic, Tos-Gly-Pro-Arg-AMC), Ki; type: biochemical
Procedure: Materials. The chromogenic and fluorogenic substrates Tosyl-Gly-Pro-Arg-pNAand Tos-Gly-Pro-Arg-AMC were purchased from Boehringer Manheim and Sigma, respectively. […] Initial velocities were recorded at several inhibitor concentrations and kinetic parameters were determined by fitting the data to a general equation describing enzyme inhibition (Segel, 1975). The data were analyzed using the non-linear regression program RNLIN in the IMSL library (IMSL, 1987) on a microVAX™ 3500 computer. […] Fluorogenic assays were conducted using the same conditions and instrument as above operating in the fluorescence mode in the ratio (λex =383 nm, λem =455 nm) Fluorescence intensities were calibrated with 7-amino-4-methyl coumarin solution of known concentration
Determination of Thrombin Inhibitory Dissociation Constants KI
The steady-state velocity was then measured for a few minutes. The compounds of this invention were also pre-incubated with thrombin for 20 min at room temperature before adding the substrate. […] The kinetic data (the steady-state velocity at various concentrations of the substrate and the inhibitors) of the competitive inhibition was analyzed using the methods described by Segel (1975). A non-linear regression program, RNLIN in the IMSL library (IMSL, 1987), LMDER in MINPACK library (More et al., 1980) or Microsoft™ Excell™, was used to estimate the kinetic parameters (Km Vmax and Ki). The biological data are reported on tables I-V.

[3] = tested on: carotid injury-induced thrombosis; experiment: FeCl3 induced arterial injury model (carotid injury-induced thrombosis); type: in vivo; conditions: rat; for Dose to double occlusion time: control occlusion time 19 ± 1 min; for Dose to achieve patency at 60 min.: patency defined by no drop in vessel temperature
Procedure: […]: Rat, male, Sprague-Dawley. Weight: 375-450 g The FeCl3 induced arterial injury model assays were conducted according to Kurz, K. D., Main, […]., Thrombosis research 60; 269-280, 1990 and Schumacher, W. A. et al. J. pharmacology and experimental therapeutics 267; 1237-1242, 1993. Male, Sprague-Dawley (375-450 g) are anesthetized with Urethane (1500 mg/kg IP). Animals are laid on a heating pad which is maintained at 37° C. The carotid artery is approached through a midline cervical incision. Carefully blunt dissection is used to expose and isolate the vessel from the carotid sheath. Using forceps, the artery is lifted to provide clearance to insert two small polyethylene tubing (PE-205) underneath it. The temperature probe (Physitemp MT23/3 )TM is placed between the PE-205 and the artery. The vessel temperature is monitored for 60 minutes after application of FeCl3. Vessel temperature changes are recorded on a thermister (Cole-Palmer Model 08533-41). Injury is induced by application of a small disc (3 mm dia.) of WhatmanTM No.1 filter paper previously dipped in a 35% solution of FeCl3 on the carotid artery above the temperature probe. The site of the experiment is covered with in Aluminum foil in order to protect the FeCl3 from degradation by light. […] Before the start of the experiment, one blood sample is drawn (1 ml) in a tube of 0.105M buffered citrate solution (from the eye's sinus) and the animal is exsanguinated at the end. All the samples are kept on ice and centrifuged as soon as possible at 2000 Rpm for 10 min., 4° C. The plasma is analyzed in duplicate for activated partial thromboplastin time on a haemostasis analyzer (STAGO ST4TM). From a group of four animals, two arteries are stored at -80C for further analysis.

[4] = given intravenously or subcutaneously, depending on the species; cited from earlier work
[5] = Table V, concentration to double the clotting time, read-out: IC50 (dtt)
[6] = Table I, inhibitor concentration required to double the clotting time, means of three ±SEM, read-out: IC50
[7] = Table I, active site directed inhibitors, human thrombin 6.0×10^-11 M, substrate 1-8×10^-5 M, read-out: Ki

| Substance | IC50 (human thrombin [1]; [5]) [nM] | Ki (human thrombin [2]; Table V, read-out: Ki) [nM] | Dose to double occlusion time [3] [mg/kg i.v. bolus] | Dose to achieve patency at 60 min. [3] [mg/kg i.v. bolus] | IC50 (human thrombin [1]; [6]) [nM] | Ki (human thrombin [2]; [7]) [nM] | also measured |
| --- | --- | --- | --- | --- | --- | --- | --- |
| 2,4,6 triisopropylbenzensulfonyl-Arg (D-Pipecolic acid)-(12-aminododecanoicacid)-4-aminobutyric acid)-Asp-Phe-Glu-Pro-Ile-Pro-Tyr-OH [BCH-2444] | 55 | 5.5 | – | – | – | – | – |
| 4-bromobenzenesulfonyl-Arg (D-Pipecolic acid)-(12-aminododecanoic acid)-4-aminobutyric acid)- Asp-Phe-Glu-Pro-Ile-Pro-Tyr-OH [BCH-2733] | 4.1 | 0.8 | > 2 | > 2 | – | – | Ki (human thrombin [2]; read-out: Ki value): < 1 nM and 0.8 nM |
| Dansyl-Arg-(D-Pipecolic acid)-Abu-NH2 [Peptide P431] | – | – | – | – | 2580 ± 680 | 980 ± 130 | – |
| Dansyl-Arg-(D-Pipecolic acid)-NH2 [Peptide P429] | – | – | – | – | 430 ± 130 | 158 ± 57 | – |
| Dansyl-Arg-(D-Tic)-NH2 [Peptide P396] | – | – | – | – | 820 ± 150 | 390 ± 20 | – |
| Dansyl-Arg-(L-Pip)-Abu-NH2 [Peptide P430] | – | – | – | – | 39100 ± 7200 | 11600 ± 3300 | – |
| Dansyl-Arg-(L-Pip)-NH2 [Peptide P428] | – | – | – | – | 37900 ± 1900 | 19100 ± 1300 | – |
| Hirudin | – | – | – | – | – | – | half-life [4]: 30 to 60 min |
| tert-butylbezenesulfonyl-Arg (D-Pipecolic acid)-(12-aminododecanoic acid)-4-aminobutyric acid)-Asp-Phe-Glu-Pro-Ile-Pro-Tyr-OH [BCH-2443] | 12 | 1 | > 4 | > 4 | – | – | – |
| tert-butylbezenesulfonyl-Arg (D-Pipecolic acid)-(12-aminododecanoic acid)-4-aminobutyric acid)-Asp-Phe-Glu-Pro-Ile-Pro-Tyr-OH [BCH-2736] | 1100 | 270 | 4 | > 4 | – | – | – |
